In assay [1] the test system is MC-38. Briefly: In vitro antiproliferative activity measured against colon 38 cancer cell line using MTT colorimetric assay. It is filed as functional, cell-based. Conditions: Mus musculus. (Formazan colour is commonly taken as a measure of viable cells.)
Assay [2] concerns P388. Briefly: In vitro antiproliferative activity measured against P388 cancer cell line using MTT colorimetric assay. It is filed as functional, cell-based. As to conditions: Mus musculus.
Assay [3] has as its system P388. Briefly: Effect on the cell cycle progression using P388 cells at 4.0 ug/mL for 24 hr; No effect. As to conditions: Mus musculus. The format is functional, cell-based.
The subject of assay [4] is KB. The experiment in a line: In vitro antiproliferative activity measured against KB cancer cell line using MTT colorimetric assay. It is filed as functional, cell-based. As to conditions: Homo sapiens.
The test system of assay [5] is P388. Briefly: Effect on the cell cycle progression using P388 cells at 4.0 ug/mL for 24 hr; GI increase. The format is functional, cell-based. Conditions: Mus musculus.
Assay [6] concerns P388. The experiment in a line: Effect on the cell cycle progression using P388 cells at 4.0 ug/mL for 24 hr; G2/M arrest & 4C-8C drug treated cells underwent an extra DNA replication without the completion of mitosis. The format is functional, cell-based. Conditions: Mus musculus.
Assay [7] relates to P388. Briefly: Effect on the cell cycle progression using P388 cells at 4.0 ug/mL for 24 hr; G2/M arrest. The format is functional, cell-based. As to conditions: Mus musculus.
The target of assay [8] is T1, Tubulin (Bos taurus) (UniProt Q6B856+Q862L2+Q862F3). Briefly: Compound was tested against bovine brain tubulin polymerization. The format is functional.
Assay [9] concerns P388. Briefly: Concentration at which compound caused cellular accumulation in GI phase in P388 cells. Conditions: Mus musculus. The format is functional, cell-based.
For another assay, the species on record is Bos taurus. The experiment in a line: Inhibitory activity against bovine microtubule assembly. The format is functional.
Assay [10] has as its system P388. Briefly: Effect on the cell cycle progression using P388 cells at 4.0 ug/mL for 24 hr; Effect:G2/M arrest & 4C-8C drug treated cells underwent an extra DNA replication without the completion of mitosis. The format is functional, cell-based. As to conditions: Mus musculus.
Assay [11] relates to MC-38. The experiment in a line: In vitro antiproliferative activity (4 ug/mL) was measured against colon 38 cancer cell line using MTT colorimetric assay. The format is functional, cell-based. Conditions: Mus musculus.
Assay [12] relates to KB. The experiment in a line: In vitro antiproliferative activity (4 ug/mL) was measured against KB cancer cell line using MTT colorimetric assay. The format is functional, cell-based. As to conditions: Homo sapiens.
Assay [13] concerns the target T1, Tubulin (Bos taurus). The experiment in a line: Compound was tested against bovine brain tubulin polymerization; active. The format is functional.
Assay [14] has as its system P388. Briefly: In vitro antiproliferative activity was measured against P388 cancer cell line using MTT colorimetric assay. Conditions: Mus musculus.

Structures are written as SMILES. ≈ marks a conversion by molar mass, not a printed value. Calls of active or inactive are those of the source. The rule behind the calls is not given here. Where only a bound is given, the exact number is not on record here.

In the case of `Nc1ccc(S(=O)(=O)Nc2ccc(-c3ccccc3)c3c(Cl)c[nH]c23)cc1`, the results for the concentration for half-maximal inhibition (IC50) in the assay on MC-38 [1], in the assay on P388 [2] and with KB [4] were 19 µg/mL (≈ 47.8 µM), 19 µg/mL (≈ 47.8 µM) and 15 µg/mL (≈ 37.7 µM), respectively. Also, the Cell cycle analysis entry in the assay on P388 [3] was “inactive”.

`O=[N+]([O-])c1ccc(S(=O)(=O)Nc2cccc3c(Cl)c[nH]c23)cc1`: the IC50 (in general, the concentration needed to halve the response being measured) in the assay with MC-38 [1] was determined as 0.34 µg/mL (≈ 0.967 µM); in the assay with P388 [2] it was 2.3 µg/mL (≈ 6.54 µM); with KB [4], 14 µg/mL (≈ 39.8 µM). Also, the Cell cycle analysis entry in the assay on P388 [5] is listed as “GI increase”.

`O=S(=O)(Nc1ccc(Cl)c2cc[nH]c12)c1ccc(Cl)cc1`: the results for the IC50 in the assay on MC-38 [1], in the assay on P388 [2] and in the assay on KB [4] were 0.66 µg/mL (≈ 1.93 µM), 4.6 µg/mL (≈ 13.5 µM) and 9.7 µg/mL (≈ 28.4 µM), respectively. In addition, in the assay on P388 [5], the Cell cycle analysis result is listed as “GI increase”.

Take `Nc1ccc(S(=O)(=O)Nc2cccc3cc(Cl)[nH]c23)cc1`: the figures for the IC50 in the assay with MC-38 [1], in the assay with P388 [2] and with KB [4] were 2.9 µg/mL (≈ 9.01 µM), 2.2 µg/mL (≈ 6.84 µM) and 1.4 µg/mL (≈ 4.35 µM), respectively. Also, the Cell cycle analysis entry with P388 [6] is on record as “G2/M arrest”.

As for `COc1ccc(S(=O)(=O)Nc2cccnc2Nc2ccc(O)cc2)cc1`, the Cell cycle analysis entry in the assay with P388 [7] is reported as “G2/M arrest”. On Tubulin (Bos taurus) [8], the result was Active.

In the case of `Nc1ccc(S(=O)(=O)Nc2cccc3c(Cl)c[nH]c23)cc1`, the Cell cycle analysis entry in the assay on P388 [5] was “GI increase”. The Concentration was 4 µg/mL with P388 [9] and over 33.3 µg/mL in the assay filed under Bos taurus.

Take `COc1ccc(S(=O)(=O)Nc2cc(Cl)cc3cc[nH]c23)cc1`: the IC50 in the assay on MC-38 [1] was found to be 0.64 µg/mL (≈ 1.9 µM); in the assay on P388 [2], 0.27 µg/mL (≈ 0.802 µM); with KB [4], 0.21 µg/mL (≈ 0.624 µM). For the same molecule, the Cell cycle analysis result in the assay with P388 [7] was “G2/M arrest”.

With `O=[N+]([O-])c1ccc(S(=O)(=O)Nc2ccc(Cl)c3cc[nH]c23)cc1`, the results for the IC50 in the assay with MC-38 [1], with P388 [2] and in the assay on KB [4] were 0.67 µg/mL (≈ 1.9 µM), 3.3 µg/mL (≈ 9.38 µM) and 9.1 µg/mL (≈ 25.9 µM), respectively. For the same molecule, the Cell cycle analysis entry with P388 [5] is reported as “GI increase”.

`COc1ccc(S(=O)(=O)Nc2cccc3cc[nH]c23)cc1`: in the assay on P388 [10], the Cell cycle analysis entry is recorded as “Effect”.

As to `Cc1ccc(S(=O)(=O)Nc2cccc3cc(Cl)[nH]c23)cc1`, the IC50 with MC-38 [1] worked out at 0.18 µg/mL (≈ 0.561 µM); with P388 [2], 0.14 µg/mL (≈ 0.436 µM); in the assay on KB [4], 0.11 µg/mL (≈ 0.343 µM). The Cell cycle analysis result in the assay on P388 [7] was “G2/M arrest”.

Take `COc1ccc(S(=O)(=O)Nc2ccc(Cl)c3cc[nH]c23)cc1`: the IC50 with MC-38 [1] is 0.65 µg/mL (≈ 1.93 µM); in the assay on P388 [2], 1.1 µg/mL (≈ 3.27 µM); with KB [4], 0.92 µg/mL (≈ 2.73 µM). The Cell cycle analysis result in the assay on P388 [10] was “Effect”.

Turning to `Nc1ccc(S(=O)(=O)Nc2cccc3cc[nH]c23)cc1`, the Cell cycle analysis entry with P388 [3] is “inactive”.

In the case of `Cc1ccc(S(=O)(=O)Nc2cccc3cc(O)[nH]c23)cc1`, the concentration for half-maximal inhibition (IC50) is 0.17 µg/mL (≈ 0.562 µM) with MC-38 [11], 0.093 µg/mL (≈ 0.308 µM) in the assay on KB [12] and 0.14 µg/mL (≈ 0.463 µM) with P388 [14]. In the assay on P388 [7], the Cell cycle analysis entry is given as “G2/M arrest”. Further, the result at Tubulin (Bos taurus) [13] was Active.

As to `O=[N+]([O-])c1ccc(S(=O)(=O)Nc2cccc3cc(Cl)[nH]c23)cc1`, the IC50 was found to be 19 µg/mL (≈ 54 µM) in the assay with MC-38 [1], 21 µg/mL (≈ 59.7 µM) in the assay with P388 [2] and 18 µg/mL (≈ 51.2 µM) in the assay on KB [4]. In addition, in the assay with P388 [3], the Cell cycle analysis entry is “inactive”.

Turning to `COc1ccc(S(=O)(=O)Nc2cccc3cc(Cl)[nH]c23)cc1`, the results for the IC50 in the assay on MC-38 [11], in the assay on KB [12] and in the assay on P388 [14] were 0.17 µg/mL (≈ 0.505 µM), 0.12 µg/mL (≈ 0.356 µM) and 0.11 µg/mL (≈ 0.327 µM), respectively. Further, in the assay with P388 [7], the Cell cycle analysis entry is recorded as “G2/M arrest”. Besides, the result on Tubulin (Bos taurus) [13] was Active.

Consider `O=S(=O)(Nc1cc(Cl)cc2cc[nH]c12)c1ccc(Cl)cc1`, for which the IC50 worked out at 8.5 µg/mL (≈ 24.9 µM) in the assay with MC-38 [1], 9.9 µg/mL (≈ 29 µM) with P388 [2] and 9.1 µg/mL (≈ 26.7 µM) in the assay on KB [4]. For the same molecule, the Cell cycle analysis result in the assay with P388 [3] was “inactive”.

Regarding `Nc1ccc(S(=O)(=O)Nc2cccc3cc(O)[nH]c23)cc1`, the IC50 with MC-38 [1] was determined as 1.8 µg/mL (≈ 5.93 µM); with P388 [2] it was 1.2 µg/mL (≈ 3.96 µM); with KB [4], 0.86 µg/mL (≈ 2.84 µM). For the same molecule, in the assay with P388 [6], the Cell cycle analysis result is “G2/M arrest”.
